Assay [1] can be described thus: inhibitors of PAF-induced NFkB signaling in CF airway cells, dose response, cell-based, uHTS hits, panel, cytotoxicity readout (AID 624344). As to conditions: CF bronchial epithelial cells, PAF-induced NFkB reporter inhibition; with PAF, mean of runs.
In assay [2] the test system is Cytotoxicity. The description is as above. As to conditions: CF bronchial epithelial cells, mean of runs.

Active and inactive are the calls of the source. The rule behind the calls is not given here. Where only a bound is given, the exact number is not on record here.

Regarding `O=c1cc(-c2ccccc2Cl)oc2c([N+](=O)[O-])c(O)cc(O)c12`, the results for the IC50 in assay [1] and in assay [2] were 0.235 µM and 5.36 µM, respectively.

Regarding `Oc1ccc(Nc2ncnc3scc(-c4ccccc4)c23)cc1`, the IC50 in assay [1] is 12.6 µM; in assay [2], 48.7 µM.

Turning to `C=CCOc1c(OC)cc(/C=N/Nc2cccc(C(=O)O)c2)c(Br)c1Br`, the IC50 in assay [1] is 15.3 µM; in assay [2], 44.5 µM.

`Cc1ncc(CC(=O)n2cc(C(=O)c3cc(Cl)ccc3O)cn2)s1`: the IC50 is 7.56 µM in assay [1] and 44.5 µM in assay [2].

Regarding `COc1ccc(-c2cc(NC=O)c3ncc(-c4cc(OC)c(OC)c(OC)c4)n3c2)cc1`, the IC50 in assay [1] is > 79 µM (inactive); in assay [2] it was 28.9 µM.

As for `COc1ccc2[nH]c(=O)c3c(c2c1)OC(C)(C)C=C3`, the IC50 is 1.67 µM in assay [1] and 19.8 µM in assay [2].

Consider `Oc1ccc(CCNc2ncnc3ccc(Cl)cc23)cc1`, for which the IC50 in assay [1] was 0.831 µM; in assay [2] it was 40.6 µM.

Consider `CC[C@H](CO)Nc1nc(Nc2cccc(Cl)c2)c2ncn(C(C)C)c2n1`, for which the IC50 in assay [1] was 3.53 µM; in assay [2] it was 8.91 µM.

For the compound `CCOc1ccccc1NC(=S)Nc1ccc2cn[nH]c2c1`, the IC50 in assay [1] was 5.7 µM; in assay [2], 58.5 µM (inactive).

Consider `COc1ccc(-c2cc(=O)oc3cc(OC(=O)C4CCCCC4)ccc23)cc1`, for which the half-inhibitory concentration (IC50) in assay [1] was 2.37 µM; in assay [2], > 79 µM (inactive).

Take `COc1ccc([C@]2(C(C)C)ON(c3ccccc3C(F)(F)F)C2=O)cc1`: the concentration for half-maximal inhibition (IC50) was 11.1 µM in assay [1] and > 79 µM (inactive) in assay [2].

In the case of `CC1(Cc2ccc(Cl)cc2)C(=O)Nc2ccc(-c3cccnc3)cc21` (stereo unspecified), the values for the IC50 in assay [1] and in assay [2] were 1.28 µM and 26.6 µM, respectively.

In the case of `COc1ccc(CN(CCC(c2ccc(F)cc2)C2CCOC(C)(C)C2)C(=O)c2ccco2)cc1` (stereo unspecified), the IC50 in assay [1] is 6.57 µM; in assay [2] it was 8.96 µM.

For `COc1ccc(/C=C/C(=O)c2cc(F)ccc2OC(=O)c2ccccc2C)cc1OC`, the IC50 result in assay [1] was “inactive”. The IC50 in assay [2] was 62.5 µM (inactive).

`COc1ccc(Nc2nc(-c3ccccc3)nc3ccccc23)cc1S(=O)(=O)N1CCOCC1`: the IC50 in assay [1] is 4.84 µM; in assay [2], 7.17 µM.

As for `CNC(=O)c1ccc(NC(=O)C2CCN(c3ncnc4sc(C)c(C)c34)CC2)cc1`, the IC50 is 5.49 µM in assay [1] and > 79 µM (inactive) in assay [2].

As for `C[C@H](O)[C@@H]1CN2CCc3c([nH]c4ccc(-c5ccc6c(c5)OCO6)cc34)[C@@H]2C[C@@H]1N(C)C(=O)Nc1ccc(F)cc1`, the IC50 in assay [1] is 9.85 µM; in assay [2], 29 µM.

Regarding `COc1ccc(C2CNC(=O)C2)cc1OC1CCCC1` (stereo unspecified), the IC50 in assay [1] is 11.3 µM; in assay [2], 40.7 µM.

Take `CCc1cc(SC#N)cc(C)c1NC(=O)CCl`: the IC50 in assay [1] was 5.47 µM; in assay [2], 43.5 µM.

`CS(=O)(=O)Nc1ccc(-c2cnc3cccnn23)cc1`: the values for the IC50 in assay [1] and in assay [2] were 2.5 µM and > 79 µM (inactive), respectively.

As for `Cc1ccc(C(=O)c2cncc(Br)c2)cc1`, the IC50 in assay [1] is 13 µM; in assay [2] it was > 79 µM (inactive).

With `CC(C)(C)OC(=O)NCC(=O)Oc1cc2oc(=O)cc(-c3ccccc3)c2cc1Cl`, the concentration for half-maximal inhibition (IC50) in assay [1] is 1.2 µM; in assay [2], 15.3 µM.

`CCN(CC(=O)Nc1ccc(OC)cc1)C(=O)c1cc(-c2cccs2)nn1-c1ccccc1`: the IC50 in assay [1] was 5.29 µM; in assay [2], 7.56 µM.

Take `O=C(CCl)N(Cc1cc(=O)[nH]c2ccccc12)c1ccccc1`: the IC50 in assay [1] was 1.48 µM; in assay [2] it was 2.98 µM.

Regarding `CC(=O)Nc1nc(C)c(-c2csc(Nc3cccc(C(C)=O)c3)n2)s1`, the concentration for half-maximal inhibition (IC50) in assay [1] was 0.538 µM; in assay [2], 40.1 µM.

For `COc1ccc(-n2nc(C(=O)NCC(=O)Nc3cc(OC)c(OC)c(OC)c3)c3ccccc3c2=O)cc1Cl`, the IC50 in assay [1] is 1.61 µM; in assay [2], 23.1 µM.

Regarding `CCCc1nc(Cl)c(C#N)c2c1CCCC2`, the IC50 in assay [1] is 4.3 µM; in assay [2] it was 73 µM (inactive).

For `COc1ccc(-c2nc(NC(=O)c3ccc(OCC(=O)Nc4ccc(F)cc4)c(OC)c3)sc2C)cc1`, the IC50 in assay [1] is 4.72 µM; in assay [2] it was 16.6 µM.

For the compound `Cc1ccc(-c2n[nH]c(=S)n2/N=C/c2ccncc2)cc1`, the 50% inhibitory concentration (IC50) in assay [1] was 2.63 µM; in assay [2], 53.1 µM (inactive).

With `COc1cc(-c2cnc3c(NC=O)cc(-c4ccc(C)cc4)cn23)cc(OC)c1OC`, the results for the IC50 in assay [1] and in assay [2] were > 79 µM (inactive) and 22 µM, respectively.

Regarding `COc1cc(NC(=O)c2cc3ccccc3cc2OC)ccc1NC(=O)c1cccs1`, the half-maximal inhibitory concentration (IC50) was 5.79 µM in assay [1] and 11 µM in assay [2].

Turning to `Nc1nc(/C=C/c2cccnc2)nc(-c2ccccc2O)n1`, the IC50 in assay [1] is 4.73 µM; in assay [2], 6.48 µM.

`Cc1[nH]nc2nc(SCC(=O)NCCC3=CCCCC3)n(-c3ccc(Br)cc3)c(=N)c12`: the figures for the IC50 in assay [1] and in assay [2] were 8.27 µM and 6.73 µM, respectively.

As for `CCC1(O)C(=O)OCc2c1cc1n(c2=O)Cc2cc3cc(O)ccc3nc2-1` (stereo unspecified), the IC50 is 0.284 µM in assay [1] and 1.09 µM in assay [2].

In the case of `N#Cc1cccc(NC(=O)COC(=O)c2ccccc2C(=O)c2ccc(Cl)c([N+](=O)[O-])c2)c1`, the IC50 in assay [1] was 2.66 µM; in assay [2], 9.79 µM.

Turning to `COc1ccc(-c2cnc3c(NC=O)cc(-c4ccc(C(=O)N5CCOCC5)cc4)cn23)cc1OC`, the IC50 is 2.94 µM in assay [1] and 14.7 µM in assay [2].

For `COC(=O)c1ccc(-c2ccc(OC)c([C@H]3[C@H]4C=CC[C@@H](C)[C@@H]4C(=O)N3Cc3ccccc3)c2)cc1`, the IC50 was 2.4 µM in assay [1] and 29.8 µM in assay [2].

`Brc1ccc2ncnc(NCc3cccnc3)c2c1`: the values for the IC50 in assay [1] and in assay [2] were 2.25 µM and 66.2 µM (inactive), respectively.

Consider `Cc1nc2sc(C(N)=O)c(N)c2c2c1CCCC2`, for which the IC50 in assay [1] is 1.18 µM; in assay [2], 64 µM (inactive).

`Cc1ccc2occ(/C=N/NC(=O)c3ccccc3Br)c(=O)c2c1`: the IC50 in assay [1] was 4.98 µM; in assay [2], 40.4 µM.

Regarding `C=C1C(=O)O[C@@H]2[C@H]1CC[C@H](C)[C@]1(O)CCC(=O)[C@@]21C`, the IC50 in assay [1] was 2.37 µM; in assay [2], 40 µM.

In the case of `CC1C(c2ccccc2)OCCN1C(=S)Nc1ccc(S(=O)(=O)N2CCCCC2)cc1` (stereo unspecified), the half-maximal inhibitory concentration (IC50) is 9.52 µM in assay [1] and 56.5 µM (inactive) in assay [2].

Regarding `CCSc1nsc(NC(=O)Nc2cccc(C(C)=O)c2)n1`, the IC50 in assay [1] was 2.24 µM; in assay [2] it was 36.5 µM.

As to `CCOC(=O)c1ccc(NC(=O)Nc2nncs2)cc1`, the results for the IC50 in assay [1] and in assay [2] were 9.39 µM and 64 µM (inactive), respectively.

In the case of `O=C(c1cncc(Br)c1)N1CCc2ccccc2C1`, the IC50 in assay [1] is 8.73 µM; in assay [2], > 79 µM (inactive).

In the case of `COc1cc2c(c(OC)c1OC)-c1ccc(O)cc1C(NC(C)=O)CC2` (stereo unspecified), the IC50 in assay [1] and in assay [2] was > 79 µM (inactive) each time.

Consider `O=C1NC(=S)N/C1=C\c1cccnc1`, for which the IC50 was 5.71 µM in assay [1] and > 79 µM (inactive) in assay [2].

On to `Brc1cccc(CSc2nnc(-c3ccncc3)o2)c1`, for which the figures for the IC50 in assay [1] and in assay [2] were 6.88 µM and > 79 µM (inactive), respectively.

Consider `COc1ccc(-n2nc(C(=O)NCC(=O)Nc3cc(OC)c(OC)c(OC)c3)c3ccccc3c2=O)cc1OC`, for which the IC50 is 2.25 µM in assay [1] and 14.6 µM in assay [2].

As for `Cc1ccc(C(=O)Nc2cccc(C(F)(F)F)c2)cc1NC(=O)c1nccnc1N`, the results for the IC50 in assay [1] and in assay [2] were 8.15 µM and 9.52 µM, respectively.

Consider `COc1ccc2c(c1)[nH]c1c(C)nccc12`, for which the IC50 was 3.77 µM in assay [1] and > 79 µM (inactive) in assay [2].

As to `c1cc2[nH]snc2c2nc(C3CC3)nc12`, the IC50 was 3.06 µM in assay [1] and 13.3 µM in assay [2].

With `O=C(Oc1cc2oc(=O)cc(-c3ccccc3)c2cc1Cl)C1CCCCC1`, the figures for the half-maximal inhibitory concentration (IC50) in assay [1] and in assay [2] were 2.22 µM and 30.6 µM, respectively.

On to `Cc1c(NC(=O)c2cc(-c3cccs3)nc3ccccc23)c(=O)n(-c2ccccc2)n1C`, for which the values for the IC50 in assay [1] and in assay [2] were 4.08 µM and 8.78 µM, respectively.

`O=C(Nc1ccccc1)c1cc2ccccc2c(=O)s1`: the IC50 in assay [1] is 5.4 µM; in assay [2], > 79 µM (inactive).

As for `O=C(COC(=O)c1c2c(nc3ccccc13)CCN(Cc1ccccc1)C2)Nc1c(F)cccc1F`, the IC50 is 3.28 µM in assay [1] and 2.64 µM in assay [2].

As for `CC(=O)c1ccc(NC(=O)Nc2ccc3c(c2)N(C)C(=O)CS3)cc1`, the values for the IC50 in assay [1] and in assay [2] were 5.14 µM and 29.2 µM, respectively.

Regarding `OCCN1CCN(c2ncnc3ccc(Br)cc23)CC1`, the IC50 in assay [1] is 2.44 µM; in assay [2], 55.7 µM (inactive).

Take `COc1cccc(C(=O)N2C(C(C)C)COc3cc(Br)ccc3S2(=O)=O)c1` (stereo unspecified): the IC50 is 12 µM in assay [1] and 24.7 µM in assay [2].

Take `CCCCn1nnnc1C(CCc1ccccc1)N1CCC(n2c(=O)[nH]c3ccccc32)CC1` (stereo unspecified): the IC50 in assay [1] was 5.91 µM; in assay [2], 12 µM.

Regarding `NC(N)=NN=C(c1ccc(F)cc1)c1ccc(C(F)(F)F)cc1`, the concentration for half-maximal inhibition (IC50) in assay [1] is 5.87 µM; in assay [2], 25.3 µM.

With `CCS(=O)(=O)c1ncc(Cl)c(C(=O)Nc2ccccc2OC)n1`, the IC50 in assay [1] was 1.82 µM; in assay [2] it was 7.42 µM.

For `CC(=O)Nc1ccc(Nc2nc(-c3sc(NC(C)=O)nc3C)cs2)cc1`, the IC50 is 1.69 µM in assay [1] and 28.4 µM in assay [2].

Consider `CN(C)c1ccc(Nc2ncnc3ccc(Br)cc23)cc1`, for which the results for the IC50 in assay [1] and in assay [2] were 1.66 µM and 15.9 µM, respectively.

`Cc1nc2c(O)c3c(c(O)c2nc1C)C1C=CC3CC1`: the figures for the IC50 in assay [1] and in assay [2] were 5.67 µM and 7.03 µM, respectively.

In the case of `C=CC[C@]12CC=CC(=O)[C@@]1(O)O[C@H](c1ccc(OC)c(OC)c1)[C@H]2C`, the figures for the IC50 in assay [1] and in assay [2] were 4.61 µM and 6.69 µM, respectively.

As to `COc1ccc2[nH]c3c(c2c1)CCNC3=O`, the IC50 was 1.37 µM in assay [1] and > 79 µM (inactive) in assay [2].

Take `CCN1CCN(Cc2ccc(NC(=O)c3ccc(C)c(NC(=O)c4csc(-c5ccncc5)n4)c3)cc2C(F)(F)F)CC1`: the figures for the IC50 in assay [1] and in assay [2] were 6.08 µM and 19.9 µM, respectively.

The term IC50 denotes the concentration that inhibits the measured activity by half.

These data come from PubChem BioAssay AID624344 (Sanford-Burnham Center for Chemical Genomics, 2012).
